Data published in the CheMixHub viscosity set.
± gives the uncertainty stated by the source.

Test: xn = mol fraction of the nth substance listed

In the case of CCCCNCCCC + CCCCO, the viscosity (298.15 K, 101.33 kPa, x1 = 0.0635) is reported as 2.402 mPa·s, the viscosity (298.15 K, 101.33 kPa, x1 = 0.1073) is reported as 2.317 mPa·s and the viscosity (298.15 K, 101.33 kPa, x1 = 0.1494) is reported as 2.223 mPa·s. It also gave a viscosity (298.15 K, 101.33 kPa, x1 = 0.2108) of 2.071 mPa·s, a viscosity (298.15 K, 101.33 kPa, x1 = 0.2648) of 1.932 mPa·s and a viscosity (298.15 K, 101.33 kPa, x1 = 0.3259) of 1.78 mPa·s. The viscosity (298.15 K, 101.33 kPa, x1 = 0.3973) was 1.606 mPa·s, the viscosity (298.15 K, 101.33 kPa, x1 = 0.4697) was 1.447 mPa·s and the viscosity (298.15 K, 101.33 kPa, x1 = 0.5484) was 1.303 mPa·s. For the same compound, the viscosity (298.15 K, 101.33 kPa, x1 = 0.6286) was 1.172 mPa·s, the viscosity (298.15 K, 101.33 kPa, x1 = 0.7575) was 1.015 mPa·s and the viscosity (298.15 K, 101.33 kPa, x1 = 0.8182) was 0.962 mPa·s. It also gave a viscosity (298.15 K, 101.33 kPa, x1 = 0.8572) of 0.927 mPa·s, a viscosity (298.15 K, 101.33 kPa, x1 = 0.8972) of 0.888 mPa·s and a viscosity (298.15 K, 101.33 kPa, x1 = 0.923) of 0.883 mPa·s. For the same compound, the viscosity (303.15 K, 101 kPa, x1 = 0.01155) was 2.23 ± 0.015 mPa·s, the viscosity (303.15 K, 101 kPa, x1 = 0.01803) was 2.213 ± 0.015 mPa·s and the viscosity (303.15 K, 101 kPa, x1 = 0.02448) was 2.198 ± 0.015 mPa·s. For the same compound, the viscosity (303.15 K, 101 kPa, x1 = 0.03423) was 2.177 ± 0.014 mPa·s, the viscosity (303.15 K, 101 kPa, x1 = 0.04155) was 2.163 ± 0.014 mPa·s and the viscosity (303.15 K, 101 kPa, x1 = 0.04858) was 2.15 ± 0.014 mPa·s. It also gave a viscosity (303.15 K, 101 kPa, x1 = 0.05659) of 2.134 ± 0.014 mPa·s, a viscosity (303.15 K, 101 kPa, x1 = 0.06332) of 2.12 ± 0.014 mPa·s and a viscosity (303.15 K, 101 kPa, x1 = 0.1014) of 2.031 ± 0.014 mPa·s. The viscosity (303.15 K, 101.33 kPa, x1 = 0.0951) was 2.122 ± 0.025 mPa·s, the viscosity (303.15 K, 101.33 kPa, x1 = 0.1888) was 1.923 ± 0.023 mPa·s and the viscosity (303.15 K, 101.33 kPa, x1 = 0.2886) was 1.712 ± 0.02 mPa·s. The viscosity (303.15 K, 101.33 kPa, x1 = 0.3967) was 1.507 ± 0.018 mPa·s, the viscosity (303.15 K, 101.33 kPa, x1 = 0.4924) was 1.34 ± 0.016 mPa·s and the viscosity (303.15 K, 101.33 kPa, x1 = 0.5903) was 1.201 ± 0.015 mPa·s. The viscosity (303.15 K, 101.33 kPa, x1 = 0.6884) was 1.078 ± 0.013 mPa·s, the viscosity (303.15 K, 101.33 kPa, x1 = 0.7951) was 0.96 ± 0.012 mPa·s and the viscosity (303.15 K, 101.33 kPa, x1 = 0.8941) was 0.8638 ± 0.011 mPa·s. For the same compound, the viscosity (308.15 K, 101.33 kPa, x1 = 0.0635) was 1.828 mPa·s, the viscosity (308.15 K, 101.33 kPa, x1 = 0.1073) was 1.767 mPa·s and the viscosity (308.15 K, 101.33 kPa, x1 = 0.1494) was 1.698 mPa·s. For the same compound, the viscosity (308.15 K, 101.33 kPa, x1 = 0.2108) was 1.588 mPa·s, the viscosity (308.15 K, 101.33 kPa, x1 = 0.2648) was 1.485 mPa·s and the viscosity (308.15 K, 101.33 kPa, x1 = 0.3259) was 1.377 mPa·s. For the same compound, the viscosity (308.15 K, 101.33 kPa, x1 = 0.3973) was 1.255 mPa·s, the viscosity (308.15 K, 101.33 kPa, x1 = 0.4697) was 1.145 mPa·s and the viscosity (308.15 K, 101.33 kPa, x1 = 0.5484) was 1.042 mPa·s. For the same compound, the viscosity (308.15 K, 101.33 kPa, x1 = 0.6286) was 0.952 mPa·s, the viscosity (308.15 K, 101.33 kPa, x1 = 0.7575) was 0.841 mPa·s and the viscosity (308.15 K, 101.33 kPa, x1 = 0.8182) was 0.801 mPa·s. It also gave a viscosity (308.15 K, 101.33 kPa, x1 = 0.8572) of 0.776 mPa·s, a viscosity (308.15 K, 101.33 kPa, x1 = 0.8972) of 0.753 mPa·s and a viscosity (308.15 K, 101.33 kPa, x1 = 0.923) of 0.739 mPa·s. The viscosity (313.15 K, 101.33 kPa, x1 = 0.0951) was 1.68 ± 0.02 mPa·s, the viscosity (313.15 K, 101.33 kPa, x1 = 0.1888) was 1.532 ± 0.018 mPa·s and the viscosity (313.15 K, 101.33 kPa, x1 = 0.2886) was 1.38 ± 0.017 mPa·s. For the same compound, the viscosity (313.15 K, 101.33 kPa, x1 = 0.3967) was 1.225 ± 0.015 mPa·s, the viscosity (313.15 K, 101.33 kPa, x1 = 0.4924) was 1.106 ± 0.014 mPa·s and the viscosity (313.15 K, 101.33 kPa, x1 = 0.5903) was 0.9976 ± 0.013 mPa·s. It also gave a viscosity (313.15 K, 101.33 kPa, x1 = 0.6884) of 0.9063 ± 0.012 mPa·s, a viscosity (313.15 K, 101.33 kPa, x1 = 0.7951) of 0.8105 ± 0.01 mPa·s and a viscosity (313.15 K, 101.33 kPa, x1 = 0.8941) of 0.7369 ± 0.0097 mPa·s. It also gave a viscosity (318.15 K, 101.33 kPa, x1 = 0.0635) of 1.441 mPa·s, a viscosity (318.15 K, 101.33 kPa, x1 = 0.1073) of 1.395 mPa·s and a viscosity (318.15 K, 101.33 kPa, x1 = 0.1494) of 1.344 mPa·s. It also gave a viscosity (318.15 K, 101.33 kPa, x1 = 0.2108) of 1.263 mPa·s, a viscosity (318.15 K, 101.33 kPa, x1 = 0.2648) of 1.188 mPa·s and a viscosity (318.15 K, 101.33 kPa, x1 = 0.3259) of 1.108 mPa·s. The viscosity (318.15 K, 101.33 kPa, x1 = 0.3973) was 1.018 mPa·s, the viscosity (318.15 K, 101.33 kPa, x1 = 0.4697) was 0.938 mPa·s and the viscosity (318.15 K, 101.33 kPa, x1 = 0.5484) was 0.864 mPa·s. The viscosity (318.15 K, 101.33 kPa, x1 = 0.6286) was 0.798 mPa·s, the viscosity (318.15 K, 101.33 kPa, x1 = 0.7575) was 0.717 mPa·s and the viscosity (318.15 K, 101.33 kPa, x1 = 0.8182) was 0.687 mPa·s. For the same compound, the viscosity (318.15 K, 101.33 kPa, x1 = 0.8572) was 0.669 mPa·s, the viscosity (318.15 K, 101.33 kPa, x1 = 0.8972) was 0.65 mPa·s and the viscosity (318.15 K, 101.33 kPa, x1 = 0.923) was 0.642 mPa·s.
CCCC(=O)O + c1ccncc1 showed a viscosity (293.15 K, 101 kPa, x2 = 0.152) of 3.474 ± 0.092 mPa·s, a viscosity (293.15 K, 101 kPa, x2 = 0.256) of 3.89 ± 0.1 mPa·s and a viscosity (293.15 K, 101 kPa, x2 = 0.429) of 3.36 ± 0.089 mPa·s. For the same compound, the viscosity (293.15 K, 101 kPa, x2 = 0.528) was 2.674 ± 0.071 mPa·s, the viscosity (293.15 K, 101 kPa, x2 = 0.642) was 1.996 ± 0.053 mPa·s and the viscosity (293.15 K, 101 kPa, x2 = 0.818) was 1.29 ± 0.034 mPa·s.
CCCCCCCCCCCCOS(=O)(=O)[O-].[Na+] + O showed a viscosity (303.15 K, 101.33 kPa, x1 = 0.000252) of 0.8085 ± 0.017 mPa·s, a viscosity (308.15 K, 101.33 kPa, x1 = 0.000324) of 0.7345 ± 0.015 mPa·s and a viscosity (308.15 K, 101.33 kPa, x1 = 0.000432) of 0.7465 ± 0.016 mPa·s. It also gave a viscosity (313.15 K, 101.33 kPa, x1 = 7.2e-05) of 0.6585 ± 0.014 mPa·s.
Work on CCCC[N+](C)(CCCC)CCCC.N#C[N-]C#N + CC[n+]1ccn(C)c1.N#C[N-]C#N yielded a viscosity (323.15 K, 101 kPa, x2 = 0.2114) of 42.05 ± 1.7 mPa·s.
In the case of CCCCBr + ClC(Cl)(Cl)Cl, the viscosity (295.95 K, 101 kPa, x1 = 0.0935) is reported as 0.874 ± 0.019 mPa·s, the viscosity (295.95 K, 101 kPa, x1 = 0.1213) is reported as 0.8589 ± 0.018 mPa·s and the viscosity (295.95 K, 101 kPa, x1 = 0.171) is reported as 0.8365 ± 0.018 mPa·s. It also gave a viscosity (295.95 K, 101 kPa, x1 = 0.2166) of 0.8163 ± 0.018 mPa·s, a viscosity (295.95 K, 101 kPa, x1 = 0.3376) of 0.7686 ± 0.017 mPa·s and a viscosity (295.95 K, 101 kPa, x1 = 0.5094) of 0.7155 ± 0.015 mPa·s. The viscosity (295.95 K, 101 kPa, x1 = 0.6766) was 0.6738 ± 0.015 mPa·s, the viscosity (303.45 K, 101 kPa, x1 = 0.0948) was 0.7853 ± 0.017 mPa·s and the viscosity (303.45 K, 101 kPa, x1 = 0.1316) was 0.7681 ± 0.017 mPa·s. It also gave a viscosity (303.45 K, 101 kPa, x1 = 0.1914) of 0.7427 ± 0.016 mPa·s, a viscosity (303.45 K, 101 kPa, x1 = 0.3229) of 0.698 ± 0.015 mPa·s and a viscosity (303.45 K, 101 kPa, x1 = 0.4875) of 0.6544 ± 0.014 mPa·s. It also gave a viscosity (303.45 K, 101 kPa, x1 = 0.7961) of 0.5884 ± 0.013 mPa·s, a viscosity (313.25 K, 101 kPa, x1 = 0.127) of 0.6844 ± 0.015 mPa·s and a viscosity (313.25 K, 101 kPa, x1 = 0.2061) of 0.6557 ± 0.014 mPa·s. It also gave a viscosity (313.25 K, 101 kPa, x1 = 0.2967) of 0.6297 ± 0.014 mPa·s, a viscosity (313.25 K, 101 kPa, x1 = 0.4576) of 0.5922 ± 0.013 mPa·s and a viscosity (313.25 K, 101 kPa, x1 = 0.6279) of 0.5598 ± 0.012 mPa·s. The viscosity (313.25 K, 101 kPa, x1 = 0.761) was 0.5382 ± 0.012 mPa·s and the viscosity (313.25 K, 101 kPa, x1 = 0.7961) was 0.5329 ± 0.011 mPa·s.
